Source: PMC3225327 (Journal of Biomedical Science, 2011)

How the values were obtained:
PDE4H = details: cited from earlier work
PDE4L = details: cited from earlier work
PDE4 subtypes (A~D) = test system: PDE4 subtypes (A~D); parameters: method as in PMID 16458289; details: cited from earlier work
[1] = cited from earlier work
[2] = test system: ovalbumin-induced airway inflammation; parameters: method as in PMID 21287361; details: compared with the ovalbumin-induced group; H&E and alcian blue-PAS staining; cited from earlier work
PDE3 = experiment: Inhibition of PDE3 activity, two-step procedure; assay type: biochemical; details: homogenate of guinea pig lungs or hearts
Procedure: (§1) Activities of PDE1~5 in the homogenate of guinea pig lungs or hearts were measured by a two-step procedure according to the previous method, using cAMP with [^3H]-cAMP or cGMP with [^3H]-cGMP as substrates. […] The reagents and homogenate were mixed on ice, and the reaction was initiated by transferring the mixture to a water bath at 37°C. Following a 30-min incubation, the reaction was stopped by transferring the reaction vessel to a bath of boiling water for 3 min. After cooling on ice, 20 μl of a 1 mg/ml solution of Crotalus atrox snake venom was added to the reaction mixture, and the mixture was incubated at 37°C for 10 min. Unreacted [^3H]-cAMP or [^3H]-cGMP was removed by the addition of 500 μl of a 1-in-1 Tris-HCl (40 mM) buffer suspension of Dowex resin (1 × 8-200) with incubation on ice for 30 min. Each tube was then centrifuged at 3700 g for 2 min, and 150 μl of the supernatant was removed for liquid scintillation counting. […] The total protein in each fraction used was assayed according to a previous method. PDE activities are reported as nmol/mg/min.

[3] = test system: xylazine/ketamine-induced anesthesia; parameters: method as in PMID 11786486; details: rats; cited from earlier work
emesis = test system: emesis; parameters: method as in PMID 11114405; details: ferrets; cited from earlier work
PDE4 [4] = test system: PDE4; parameters: method as in PMID 15476679; details: cited from earlier work
[5] = test system: duration of xylazine/ketamine-induced anesthesia; experiment: Xylazine/ketamine-induced anesthesia; details: 0.25 h before anesthesia
Procedure: After loss of the righting reflex (i.e., when a mouse remained on its back and no longer spontaneously righted itself to a prone position), the duration of anesthesia was measured until its return as the endpoint.

PDE1 = experiment: Inhibition of PDE1 activity, two-step procedure; assay type: biochemical; details: homogenate of guinea pig lungs or hearts
Procedure: as §1

PDE4 [6] = experiment: Inhibition of PDE4 activity, two-step procedure and Lineweaver-Burk analysis; assay type: biochemical, guinea pig
Procedure: as §1

[7] = test system: high-affinity rolipram-binding sites (HARBSs) of guinea pig brain cell membranes; experiment: Displacement of 2 nM [3H]-rolipram from high-affinity rolipram-binding sites (PDE4H); details: 2 nM [3H]-rolipram, 30°C, 1 h; read-out: EC50 (PDE4H) for displacing [3H]-rolipram binding
Procedure: When the above-mentioned guinea pigs were sacrificed, the whole brains were removed and homogenized with a glass/Teflon homogenizer (Glas-Col, Terre Haute, IN, USA) in 10 volumes of cold medium (pH 6.5) containing 20 mM Bis-Tris, 2 mM benzamidine, 2 mM EDTA, 50 mM sodium chloride, 0.1 mM PMSF, and 1 mM dithiothreitol. At 4°C, the homogenate was centrifuged at 170 g for 5 min to remove connective tissues and blood vessels. The suspended homogenate was then re-centrifuged at 40,000 g for 30 min to separate the cytosolic and particulate portions. The particulate portion was re-suspended in a suspension at a concentration of 400 mg/ml (wet weight/volume), after washing three times with homogenizing buffer. The particulate portion mainly consisted of cell membranes. […] Briefly, the reaction buffer consisted of 50 mM Tris-HCl and 5 mM MgCl2 (pH 7.5). […] After 1 h, the reaction was terminated by moving the reaction vessel into crushed ice. Then the reaction mixture was transferred onto Whatman GF/B glass-fiber filters, which were soaked in a 0.3% polyethyleneimine solution in a mini-funnel.

Structure (SMILES): COc1ccc([C@]2(C#N)CC[C@@H](C(=O)O)CC2)cc1OC1CCCC1 [cilomilast]
- PDE4H value (PDE4H): 117.8 nM
- PDE4H/PDE4L ratio (PDE4H): 1
- PDE4L value (PDE4L): 120 nM
- selectivity among PDE4 subtypes (PDE4 subtypes (A~D)): higher potency for PDE4D compared to PDE4A and PDE4B
- tolerability: diarrhea and nausea ([1]; COPD phase III study, 15 mg twice daily over 6 months): higher frequencies of diarrhea and nausea than a placebo

Structure (SMILES): COc1ccc([C@@H]2CC(=O)c3c(O)cc(O[C@@H]4O[C@H](CO[C@@H]5O[C@@H](C)[C@H](O)[C@@H](O)[C@H]5O)[C@@H](O)[C@H](O)[C@H]4O)cc3O2)cc1O [hesperidin]
- effect on inflammatory cell infiltration and mucus hypersecretion in lung [2]: inhibit inflammatory cell infiltration and mucus hypersecretion

Structure (SMILES): Cc1[nH]c(=O)c(C#N)cc1-c1ccncc1 [milrinone, reference compound]
- IC50 (PDE3): 2500 ± 1600 nM

Structure (SMILES): CN1CC[C@]2(CCN3CCc4c(oc5ccccc45)[C@@H]3C2)N(C)C1=O.Cl [MK-912]
- effect on xylazine/ketamine-induced anesthesia [3]: reverse xylazine/ketamine-induced anesthesia
- vomiting (emesis): trigger vomiting

Structure (SMILES): Clc1cccc(Cl)c1N=C1NCCN1 [clonidine]
- effect on emesis induced by PDE4 inhibitors (emesis): prevented emesis

Structure (SMILES): COc1ccc(C2CC(=O)c3c(O)cc(O)cc3O2)cc1O (centres unmarked) [hesperetin, 5,7,3'-trihydroxy-4'-methoxyflavanone]
- selectivity of PDE inhibition (PDE4 [4]): selectively inhibit PDE4 activity

Structure (SMILES): COc1ccc(C2CNC(=O)C2)cc1OC1CCCC1 (centres unmarked) [Rolipram, rolipram]
- effect on duration of xylazine/ketamine-induced anesthesia ([5]; 0.01~1 μmol/kg s.c.): dose-dependently shortened
- effect on duration of xylazine/ketamine-induced anesthesia ([5]; 0.01~1 μmol/kg s.c., listed as rolipram): reversed the anesthesia
- effect on duration of xylazine/ketamine-induced anesthesia ([5]; 0.1 and 1 μmol/kg s.c.): significantly shortened
- PDE4H/PDE4L ratio (PDE4H): 0.01~0.001

Structure (SMILES): COc1cccc(Nc2c(C(N)=O)cnc3c(C)cc(S(=O)(=O)c4cccc(C(=O)N(C)C)c4)cc23)c1 [GSK256066]
- efficacy in trials in asthma ([1]; inhaled): demonstrated efficacy

Structure (SMILES): CCOC(=O)C1=C[C@]2(CC)CCCN3CCc4c(n1c1ccccc41)[C@@H]32 [vinpocetin, Vinpocetine, reference compound]
- IC50 (PDE1): 42.3 ± 5.8 µM

Structure (SMILES): O=C(Nc1c(Cl)cncc1Cl)C(=O)c1cn(Cc2ccc(F)cc2)c2ccc(O)cc12 [AWD 12-281, N-(3,5-dichloro-pyrid-4-yl)-[1-(4-fluorobenzyl)-5-hydroxy-indole-3-yl]-glyoxylic acid amide]
- PDE4H value (PDE4H): 104 nM
- PDE4H/PDE4L ratio (PDE4H): approximately 11
- PDE4L value (PDE4L): 9.7 nM
- efficacy in clinical trials for asthma and COPD [1]: lack of efficacy

Structure (SMILES): CCCCOc1cc(CC2CNC(=O)N2)ccc1OC (centres unmarked) [Ro 20-1724, 4-(3-butoxy-4-methoxybenzyl)-2-imidazolidinone, reference compound]
- mode of PDE4 inhibition (PDE4 [6]; Lineweaver-Burk analysis, inhibitor 1~10 μM): competitively inhibited
- Ki (PDE4 [6]; Lineweaver-Burk analysis, inhibitor 1~10 μM, substrate cAMP, read-out: dissociation constant for inhibitory binding (Ki), PDE4): 8.1 ± 2.4 µM
- IC50 (PDE4 [6]; homogenate of guinea pig lungs or hearts): 4.3 ± 2.1 µM
- EC50 [7]: 87 ± 29 nM

Structure (SMILES): O=C(Nc1c(Cl)cncc1Cl)c1ccc(OC(F)F)c(OCC2CC2)c1 [roflumilast]
- PDE4H value (PDE4H): 2.4 nM
- PDE4H/PDE4L ratio (PDE4H): 3
- PDE4L value (PDE4L): 0.8 nM
- selectivity among PDE4 subtypes (PDE4 subtypes (A~D)): non-selective for these four PDE4 subtypes
- mean pre- and post-bronchodilator FEV1 ([1]; patients with moderate-to-severe COPD, compared to placebo): significantly improve
- nausea, diarrhea, weight loss, and headaches ([1]; patients with moderate-to-severe COPD): more frequent

Structure (SMILES): CCOc1cc([C@@H](CS(C)(=O)=O)N2C(=O)c3cccc(NC(C)=O)c3C2=O)ccc1OC [apremilast]
- efficacy in severe plaque-type psoriasis ([1]; oral): effective
